Details in all cases: incubation time: 72 h
Test [1] deals with CAL-148. Put plainly: normalised response (% of control), CellTox Green; higher = less cell death (100 = DMSO, 0 = benzethonium chloride kill control). The gist of the method:
(§1)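 CellTox Green fluorescence (485/520 nm) and, after 10 min at room temperature, CellTiter-Glo luminescence were read from breast cancer cell lines incubated 72 h in 384-well plates. Cells were seeded as 20 µl suspension onto compound at 5 concentrations in 10-fold steps over a 10,000-fold range chosen per compound. Each plate was normalised to 0.1 % DMSO (100) and a positive kill control (0). Values are normalised signals, one per concentration.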

For test [2], the system named is CAL-85-1. Described as above. The gist of the method:
as §1

In test [3] the test system is DU-4475. The test is described as above. The gist of the method:
as §1

Test [4] deals with HCC1143. Described as above. The gist of the method: as §1
Test [5] concerns HCC1599. The test is described as above. The gist of the method: as §1
Test [6] relates to HCC1937. The description is as above. The gist of the method: as §1
Test [7] concerns MCF-10A. Described as above. The gist of the method:
as §1

Test [8] relates to MDA-MB-436. Described as above. The gist of the method:
as §1

In test [9] the test system is MDA-MB-468. The description is as above. The gist of the method:
as §1

The subject of test [10] is MFM-223. Described as above. The gist of the method: as §1
The test system of test [11] is MDA-MB-231. The test is described as above. The gist of the method:
as §1

The subject of test [12] is BT-474. Put plainly: normalised viability (% of control), CellTiter-Blue; higher = more viable cells (about 100 = DMSO control). The gist of the method:
(§2)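 384-well plates were pre-loaded with compound in 5 µl medium before 20 µl of breast cancer cell suspension was seeded. Following 72 h incubation, 2.5 µl CellTiter-Blue reagent was added for 2 h at 37 °C. Fluorescence was read at 560/590 nm and plates were normalised to vehicle (100) and a positive kill control (0), checked by Z'-factor. Normalised viability is reported at a single listed concentration of the series.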
A general note: Resazurin is reduced to fluorescent resorufin, in cell work by metabolically active cells.

The subject of test [13] is BT-549. The test is described as above. The gist of the method: as §2
The test system of test [14] is CAL-120. The description is as above. The gist of the method: as §2
The subject of test [15] is CAL-148. Described as above. The gist of the method:
as §2

For test [16], the system named is CAL-51. Described as above. The gist of the method: as §2
For test [17], the system named is CAL-85-1. The description is as above. The gist of the method: as §2
For test [18], the system named is DU-4475. Described as above. The gist of the method:
as §2

Test [19] relates to HCC1143. The test is described as above. The gist of the method:
as §2

The subject of test [20] is HCC1599. The test is described as above. The gist of the method:
as §2

Test [21] has as its system HCC1937. The test is described as above. The gist of the method:
as §2

The subject of test [22] is HDQ-P1. Described as above. The gist of the method:
as §2

For test [23], the system named is Hs578T. The description is as above. The gist of the method:
as §2

In test [24] the test system is MDA-MB-453. The test is described as above. The gist of the method: as §2
Test [25] concerns MDA-MB-468. Described as above. The gist of the method:
as §2

Test [26] concerns SK-BR-3. Described as above. The gist of the method:
as §2

As for `Cc1ccc(-n2nc(C(C)(C)C)cc2NC(=O)Nc2ccc(OCCN3CCOCC3)c3ccccc23)cc1` [Doramapimod] (10000 nM), the normalised response in test [1] is 98.2%; in test [2], 126%; in test [3], 100%; in test [4], 75.8%; in test [5], 99%; in [6], 79.6%. Further, the normalised response in test [7] is 101%; in [8], 55.2%; in test [9] it was 132%; in [10] it was 96.5%.

`O=C1CCC(N2C(=O)c3ccccc3C2=O)C(=O)N1` (stereo not drawn) [Thalidomide] (10000 nM): the normalised response in test [1] was found to be 60.5%; in test [2] it was 119%; in test [3], 99.1%; in [4], 105%; in test [5], 99.9%; in [6], 97.8%. For the same compound, the normalised response in test [7] is 99%; in [11] it was 115%; in [9], 186%; in [10], 101%.

`C#Cc1cccc(Nc2ncnc3cc(OCCOC)c(OCCOC)cc23)c1` [Erlotinib] (10000 nM): the normalised response in test [1] is 85.1%; in test [2], 46%; in test [3], 101%; in [4], 16.9%; in test [5], 104%; in [6], 81.4%. Further, the normalised response was 104% in [7], 102% in [8], 97.7% in test [9] and 69.3% in test [10].

In the case of `O=P1(NCCCl)OCCCN1CCCl` (stereo not drawn) [Ifosfamide] (10000 nM), the normalised response in [1] was found to be 95.8%; in test [2], 133%; in [3], 94.9%; in test [4], 99.9%; in test [5] it was 93.6%; in [11], 89%. Moreover, the values for the normalised response in test [8], in test [9] and in test [10] were 82.4%, 193% and 95.7%, respectively.

Consider `CN(C)/N=N/c1[nH]cnc1C(N)=O` [Dacarbazine] (10000 nM), for which the normalised response in test [2] came to 81.7%; in test [3] it was 98.9%; in test [4], 116%; in test [5] it was 104%; in test [7], 103%; in [11] it was 101%. The normalised response worked out at 91.3% in test [8], 104% in test [9] and 96.7% in [10].

In the case of `CNCc1ccc(-c2[nH]c3cc(F)cc4c3c2CCNC4=O)cc1` [Rucaparib], the normalised viability was found to be 108% in test [12] (10 nM); 111% in test [12] (1000 nM); 102% in test [12] (10000 nM); 100% in [13] (10 nM); 107% in test [13] (1000 nM); 93.8% in test [13] (10000 nM). Besides, the normalised viability in test [14] (10 nM) was determined as 77.4%; in test [14] (1000 nM), 81%; in test [14] (10000 nM), 76.8%; in [15] (3 nM) it was 90.5%; in test [15] (30 nM) it was 87.6%; in test [15] (100 nM), 92.6%. Moreover, the normalised viability is 119% in test [16] (3 nM); 114% in test [16] (30 nM); 110% in test [16] (100 nM); 93.2% in test [17] (3 nM); 84.2% in test [17] (30 nM); 94.6% in [17] (100 nM). In addition, the normalised viability in test [18] (3 nM) was found to be 84%; in test [18] (30 nM) it was 96.6%; in test [18] (100 nM), 83%; in test [19] (10 nM), 84.3%; in test [19] (1000 nM), 94.2%; in test [19] (10000 nM) it was 89.9%. In addition, the normalised viability in test [20] (10 nM) came to 95.8%; in test [20] (1000 nM) it was 128%; in test [20] (10000 nM), 96.2%; in [21] (10 nM) it was 55.9%; in test [21] (1000 nM), 72.2%; in [21] (10000 nM), 52.7%. In addition, the normalised viability in test [22] (3 nM) worked out at 87%; in test [22] (30 nM), 88%; in test [22] (100 nM), 88.2%; in [23] (10 nM), 112%; in test [23] (1000 nM) it was 107%; in test [23] (10000 nM), 94.4%. In addition, the normalised viability in [24] (3 nM) was found to be 111%; in test [24] (30 nM), 89.3%; in test [24] (100 nM) it was 110%; in test [25] (10 nM), 103%; in [25] (1000 nM) it was 105%; in [25] (10000 nM) it was 77.5%. Also, the normalised viability in test [26] (10 nM) was 97.5%; in test [26] (1000 nM) it was 98.2%; in test [26] (10000 nM) it was 78.5%.

Regarding `NC(=O)Nc1cc(-c2cccc(F)c2)sc1C(=O)N[C@H]1CCCNC1` [AZD 7762], the normalised viability was determined as 119% in test [12] (1 nM); 113% in test [12] (100 nM); 106% in [12] (1000 nM); 114% in test [13] (1 nM); 118% in [13] (100 nM); 35.5% in test [13] (1000 nM). Moreover, the normalised viability in [14] (1 nM) was found to be 118%; in test [14] (100 nM), 101%; in test [14] (1000 nM), 26.5%; in [15] (0.3 nM), 110%; in test [15] (3 nM), 106%; in test [15] (10 nM), 111%. The normalised viability in test [16] (0.3 nM) was 101%; in test [16] (3 nM), 93.7%; in test [16] (10 nM), 102%; in test [17] (0.3 nM) it was 106%; in test [17] (3 nM), 98.6%; in [17] (10 nM), 99.4%. Moreover, the normalised viability in [18] (0.3 nM) came out at 99.3%; in [18] (3 nM), 109%; in test [18] (10 nM) it was 100%; in test [19] (1 nM), 120%; in test [19] (100 nM), 109%; in [19] (1000 nM) it was 34.8%. Further, the normalised viability was found to be 93.2% in test [20] (1 nM); 73.1% in test [20] (100 nM); 53.9% in test [20] (1000 nM); 104% in test [21] (1 nM); 108% in test [21] (100 nM); 27.9% in [21] (1000 nM). For the same compound, the normalised viability amounted to 108% in test [22] (0.3 nM); 114% in test [22] (3 nM); 115% in test [22] (10 nM); 106% in [23] (1 nM); 90% in [23] (100 nM); 27.3% in [23] (1000 nM). For the same compound, the normalised viability in test [24] (0.3 nM) came to 113%; in [24] (3 nM), 93.2%; in test [24] (10 nM), 108%; in test [25] (1 nM) it was 107%; in [25] (100 nM) it was 103%; in test [25] (1000 nM), 22.2%. Moreover, the results for the normalised viability in [26] (1 nM), in test [26] (100 nM) and in test [26] (1000 nM) were 101%, 93.2% and 11.5%, respectively.

With `N[C@@H](CSC(c1ccccc1)(c1ccccc1)c1ccccc1)C(=O)O` [S-trityl-L-cysteine] (40000 nM), the normalised response in [1] is 92.2%; in test [2], 98.6%; in test [3], 103%; in test [4] it was 132%; in test [5], 114%; in [7], 112%. Moreover, the normalised response amounted to 122% in test [11], 107% in test [8], 124% in test [9] and 91% in [10].

The record behind these values is the supplement of paper PMC4862054.
